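Following 48 hours of exposure in 96-well plates, responses at five concentrations were used to interpolate endpoints linearly. GI50 is the concentration that inhibits growth by half.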 The source made the active and inactive calls. No stated cut-off is given here; in the data, active = GI50 up to about 1.1 µM and inactive = higher.
What was measured:
Test in all cases: NCI anticancer screen, dose series, 48 h
SNB-75 = tested on: SNB-75
786-0 = tested on: 786-0
RPMI-8226 = tested on: RPMI-8226
Malme-3M = tested on: Malme-3M
UACC-257 = tested on: UACC-257
NCI-H23 = tested on: NCI-H23
HOP-92 = tested on: HOP-92
RXF 393 = tested on: RXF 393
KM12 = tested on: KM12
SK-MEL-28 = tested on: SK-MEL-28
IGROV-1 = tested on: IGROV-1
HT-29 = tested on: HT-29
SW-620 = tested on: SW-620
ACHN = tested on: ACHN
UO-31 = tested on: UO-31
CAKI-1 = tested on: CAKI-1
SF-539 = tested on: SF-539
NCI-H522 = tested on: NCI-H522
SR = tested on: SR

Compound	GI50 (SNB-75)	GI50 (786-0)	GI50 (RPMI-8226)	GI50 (Malme-3M)	GI50 (UACC-257)	GI50 (NCI-H23)	GI50 (HOP-92)	GI50 (RXF 393)	GI50 (KM12)	GI50 (SK-MEL-28)	GI50 (IGROV-1)	GI50 (HT-29)	GI50 (SW-620)	GI50 (ACHN)	GI50 (UO-31)	GI50 (CAKI-1)	GI50 (SF-539)	GI50 (NCI-H522)	GI50 (SR)
CCCCCCC(=O)C/C(=N/NC(N)=S)C(=O)NC1C2CC3CC(C2)CC1C3 (stereo not drawn)	> 100 µM (inactive)	> 100 µM (inactive)	> 100 µM (inactive)	> 100 µM (inactive)	> 100 µM (inactive)	> 100 µM (inactive)	86.1 µM (inactive)	> 100 µM (inactive)	> 100 µM (inactive)	> 100 µM (inactive)	> 100 µM (inactive)	> 100 µM (inactive)	> 100 µM (inactive)	> 100 µM (inactive)	> 100 µM (inactive)				
OCC12C3C4C1C1C2C3C41CO (stereo not drawn)		> 100 µM (inactive)	> 100 µM (inactive)	> 100 µM (inactive)	> 100 µM (inactive)	> 100 µM (inactive)	> 100 µM (inactive)			> 100 µM (inactive)	> 100 µM (inactive)	> 100 µM (inactive)	> 100 µM (inactive)	> 100 µM (inactive)	> 100 µM (inactive)	> 100 µM (inactive)	> 100 µM (inactive)		
O=C(NN1C(=O)C(Cl)C1c1c(O)ccc2ccccc12)c1ccccc1O (stereo not drawn)	> 100 µM (inactive)	> 100 µM (inactive)		> 100 µM (inactive)	> 100 µM (inactive)	> 100 µM (inactive)		> 100 µM (inactive)	> 100 µM (inactive)	> 100 µM (inactive)	> 100 µM (inactive)	> 100 µM (inactive)		> 100 µM (inactive)	> 100 µM (inactive)		> 100 µM (inactive)	> 100 µM (inactive)	
NC1CCC[C@H]1O (stereo partly drawn)	> 100 µM (inactive)	> 100 µM (inactive)	> 100 µM (inactive)	> 100 µM (inactive)	> 100 µM (inactive)	> 100 µM (inactive)	> 100 µM (inactive)	> 100 µM (inactive)	> 100 µM (inactive)	> 100 µM (inactive)	> 100 µM (inactive)	> 100 µM (inactive)	> 100 µM (inactive)	> 100 µM (inactive)	> 100 µM (inactive)		> 100 µM (inactive)	> 100 µM (inactive)	
CN1C(=O)C2C=CC1C1CCC2N(C)C1=O (stereo not drawn)	> 100 µM (inactive)	> 100 µM (inactive)	> 100 µM (inactive)	> 100 µM (inactive)	> 100 µM (inactive)	> 100 µM (inactive)	> 100 µM (inactive)	> 100 µM (inactive)	> 100 µM (inactive)	> 100 µM (inactive)	> 100 µM (inactive)	> 100 µM (inactive)	> 100 µM (inactive)		> 100 µM (inactive)	> 100 µM (inactive)	> 100 µM (inactive)	> 100 µM (inactive)	
C[C@@]1(CO)[C@H](O)CC[C@@]2(C)[C@H]1CC[C@H]1C[C@@H]3C[C@@]12CC[C@@]3(O)COC(=O)CN		0.923 µM (active)	6.56 µM (inactive)		33.9 µM (inactive)	2.08 µM (inactive)	20.4 µM (inactive)		28 µM (inactive)	100 µM (inactive)		9.25 µM (inactive)		0.098 µM (active)	4.7 µM (inactive)	0.762 µM (active)			0.811 µM (active)
COc1cccc2c1C(=O)c1c(O)c3c(c(O)c1C2=O)C[C@@](O)(C(=O)CO)CC3OC1CC(NCCOCC(OC(C)=O)OC(C)=O)C(O)C(C)O1 (stereo partly drawn)	< 0.01 µM (active)	< 0.01 µM (active)	< 0.01 µM (active)	< 0.01 µM (active)	< 0.01 µM (active)	< 0.01 µM (active)	< 0.01 µM (active)	< 0.01 µM (active)	< 0.01 µM (active)	< 0.01 µM (active)	< 0.01 µM (active)	< 0.01 µM (active)	< 0.01 µM (active)	< 0.01 µM (active)	< 0.01 µM (active)	0.01 µM (active)	< 0.01 µM (active)		< 0.01 µM (active)
O=C1CCC2(c3ccc(F)cc3)Nc3ncccc3N12 (stereo not drawn)	70.1 µM (inactive)	> 100 µM (inactive)	> 100 µM (inactive)	> 100 µM (inactive)	> 100 µM (inactive)	> 100 µM (inactive)	> 100 µM (inactive)	> 100 µM (inactive)	> 100 µM (inactive)	> 100 µM (inactive)	> 100 µM (inactive)	> 100 µM (inactive)	> 100 µM (inactive)	> 100 µM (inactive)	> 100 µM (inactive)	> 100 µM (inactive)	> 100 µM (inactive)	> 100 µM (inactive)	
COC(=O)CCC(=O)Nc1cccc(C(F)(F)F)c1	> 74.1 µM (inactive)	> 100 µM (inactive)	> 100 µM (inactive)	> 100 µM (inactive)	> 100 µM (inactive)	> 100 µM (inactive)	> 100 µM (inactive)	> 100 µM (inactive)	> 100 µM (inactive)	> 100 µM (inactive)	> 100 µM (inactive)	> 100 µM (inactive)	> 100 µM (inactive)	> 100 µM (inactive)	> 100 µM (inactive)	> 100 µM (inactive)	> 100 µM (inactive)	> 100 µM (inactive)	
CN1CCc2c1nc(-c1ccc(Cl)cc1)c1c2N(C)CC1	29.6 µM (inactive)	> 100 µM (inactive)	9.06 µM (inactive)	> 100 µM (inactive)	13.7 µM (inactive)	14.8 µM (inactive)		10.9 µM (inactive)	3.7 µM (inactive)		3.06 µM (inactive)	4.56 µM (inactive)	24.4 µM (inactive)	6.78 µM (inactive)	10.7 µM (inactive)	6.44 µM (inactive)	15.4 µM (inactive)		
Cc1cc(=O)n(-c2cc3cccccc-3n2)[nH]1	3.76 µM (inactive)	4.58 µM (inactive)	8 µM (inactive)	3.76 µM (inactive)	5.15 µM (inactive)	4.8 µM (inactive)		2.36 µM (inactive)	5.38 µM (inactive)	4.67 µM (inactive)	2.78 µM (inactive)	13.5 µM (inactive)	3.73 µM (inactive)	5.87 µM (inactive)	6.35 µM (inactive)		5.47 µM (inactive)	2.68 µM (inactive)	
CCOC(=O)NC(=O)c1cn(CCOC(=O)NCCCCCCNC(=O)OCCn2cc(C(=O)NC(=O)OCC)c(=O)[nH]c2=O)c(=O)[nH]c1=O	> 100 µM (inactive)	> 100 µM (inactive)	> 100 µM (inactive)	> 100 µM (inactive)	> 100 µM (inactive)			> 100 µM (inactive)	> 100 µM (inactive)	> 100 µM (inactive)	> 100 µM (inactive)	> 100 µM (inactive)	> 100 µM (inactive)	> 100 µM (inactive)	> 100 µM (inactive)	> 100 µM (inactive)		> 100 µM (inactive)	
O=C(CC1Sc2ccccc2NC1=O)Nc1cccc(Cl)c1 (stereo not drawn)	32.4 µM (inactive)	39.4 µM (inactive)	21.7 µM (inactive)	55.2 µM (inactive)	> 100 µM (inactive)	55.5 µM (inactive)	25.5 µM (inactive)	33.3 µM (inactive)		24 µM (inactive)	40.9 µM (inactive)	57.3 µM (inactive)	34.4 µM (inactive)	31.8 µM (inactive)	28.8 µM (inactive)	33 µM (inactive)	72.9 µM (inactive)		34 µM (inactive)
COc1ccc(CN(CCN(C)C)c2ccccn2)cc1.Cn1c(=O)c2[nH]c(Br)nc2n(C)c1=O	23.3 µM (inactive)	> 100 µM (inactive)		> 100 µM (inactive)	> 100 µM (inactive)	> 100 µM (inactive)	22.3 µM (inactive)		> 100 µM (inactive)	> 100 µM (inactive)	> 100 µM (inactive)	> 100 µM (inactive)	> 100 µM (inactive)	> 100 µM (inactive)	> 100 µM (inactive)	> 100 µM (inactive)	> 100 µM (inactive)	> 100 µM (inactive)	
Cc1cc(C)c(C(=O)OC(c2ccccc2)C(c2ccccc2)N2CCOCC2)c(C)c1 (stereo not drawn)	> 100 µM (inactive)	> 100 µM (inactive)	6.01 µM (inactive)	> 100 µM (inactive)	> 100 µM (inactive)	> 100 µM (inactive)		91 µM (inactive)	> 100 µM (inactive)	> 100 µM (inactive)	> 100 µM (inactive)	> 100 µM (inactive)	> 100 µM (inactive)	> 100 µM (inactive)	> 100 µM (inactive)	> 100 µM (inactive)	> 100 µM (inactive)	> 100 µM (inactive)	
Cc1cc2c(C)nn(Cc3ccc(Cl)cc3Cl)c2c(C#N)c1C	89.9 µM (inactive)	> 100 µM (inactive)	> 100 µM (inactive)	> 100 µM (inactive)	37.8 µM (inactive)	> 100 µM (inactive)	35.9 µM (inactive)	67 µM (inactive)		> 100 µM (inactive)	> 100 µM (inactive)	78.5 µM (inactive)	> 100 µM (inactive)	> 100 µM (inactive)	> 100 µM (inactive)		> 100 µM (inactive)		> 100 µM (inactive)
Cn1c(=O)cc2[nH]c3ccccc3n2c1=O	> 100 µM (inactive)	24 µM (inactive)	> 100 µM (inactive)	> 100 µM (inactive)	> 100 µM (inactive)	> 100 µM (inactive)	> 100 µM (inactive)	28.8 µM (inactive)	> 100 µM (inactive)	> 100 µM (inactive)	> 100 µM (inactive)	49.3 µM (inactive)	22.7 µM (inactive)	69.7 µM (inactive)	93.3 µM (inactive)	> 100 µM (inactive)	20.3 µM (inactive)		> 100 µM (inactive)

Source: ChEMBL document CHEMBL1201862, “PubChem BioAssay data set” (2004)
